According to patent US11464802B2, “3-substituted piperidine compounds for Cbl-b inhibition, and use thereof” (Nurix Therapeutics, Inc., priority 2019, dated 2022):

What was measured:
[1] = target: T1, Cbl-b (Homo sapiens (Human), UniProt Q13191); test: Cbl-b displacement assay (Cbl-b inhibition assay), Biological Example 8; format: binding; conditions: 0.5 nM Cbl-b final concentration (High); Table 8-1; read-out: Cbl-b IC50 (High)
Method: (§1) Candidate compounds were evaluated for their ability to bind and inhibit Cbl-b, an E3 ubiquitin-protein ligase, as evidenced by their ability to displace a fluorophore-labeled probe bound to Cbl-b.
(§2) The ability of candidate compounds to displace a known inhibitor and thereby inhibit Cbl-b activity was measured by monitoring the interaction of Cbl-b with a fluorophore-labeled probe in the presence of the candidate compound. A truncated variant of Cbl-b (UniProt number Q13191) containing residues 36-427 and an Avitag at its N-terminus was co-expressed with BirA biotin ligase and purified using a standard protocol (see Dou et al., Nature Structural and Molecular Biology 8: 982-987, 2013; Avidity LLC).
(§3) Fluorescently-labeled inhibitor probe was synthesized and tagged with BODIPY FL. Cbl-b displacement assays were performed in a 384-well plate at room temperature in a 10 μl reaction volume by pre-incubating 0.5 nM Cbl-b or 0.125 nM Cbl-b (final concentration, indicated as “High” and “Low”, respectively) in an assay buffer containing 20 mM HEPES pH 7.5, 150 mM NaCl, 0.01% Triton X-100, 0.01% BSA and 0.5 mM TCEP in the presence of a candidate compound in 1% DMSO (final concentration) for 1 hour. After incubation in the presence of the candidate compound, the plate was incubated for an additional 1 hour in the presence of an approximate EC40 binding saturation consisting of 150 nM fluorescently-labeled inhibitor probe and 2 nM Streptavidin-Terbium (Cisbio) (final concentrations). Following the 1 hour incubation, the plates were read for TR-FRET signal at 520/620 nM using an Envision plate reader (Perkin Elmer).
(§4) The resulting data for the Cbl-b activity assays were analyzed using standard methods to determine the IC50 values for the tested compounds.

[2] = tested on: primary human total T-cells; test: Primary human total T-cell activation: IL-2 secretion, Biological Example 2; format: cell-based; conditions: 48 hours, fold change over baseline; for fold induction at 0.3 µM: inhibitor 0.3 μM; for fold induction at 1 µM: inhibitor 1 μM; for fold induction at 3 µM: inhibitor 3 μM
[3] = tested on: primary human total T-cells; test: Primary human total T-cell activation: CD25 surface staining, Biological Example 13; format: cell-based; conditions: 48 hours, fold change over baseline; for fold induction at 0.3 µM: inhibitor 0.3 μM; for fold induction at 0.3 µM / fold induction at 3 µM: Table 13-1; for fold induction at 1 µM: inhibitor 1 μM; for fold induction at 3 µM: inhibitor 3 μM
[4] = target: T1, Cbl-b; test: Cbl-b displacement assay (Cbl-b inhibition assay), TR-FRET probe displacement, Biological Example 1; format: binding
Method in brief: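 TR-FRET displacement of a BODIPY FL-labelled inhibitor probe (150 nM, ~EC40) from biotin-Avitag truncated Cbl-b, detected via 2 nM streptavidin-Tb, 1 h, room temperature. Compound in 1% DMSO pre-incubated 1 h with Cbl-b at 0.5 nM (High) or 0.125 nM (Low) in 20 mM HEPES pH 7.5, 150 mM NaCl, 0.5 mM TCEP.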

[5] = tested on: primary human total T-cells; test: Primary human total T-cell activation: IL-2 secretion, Biological Example 9; format: cell-based; conditions: 48 hours, fold change over baseline; for fold induction at 0.3 µM: inhibitor 0.3 μM; for fold induction at 0.3 µM / fold induction at 3 µM: Table 9-1; for fold induction at 1 µM: inhibitor 1 μM; for fold induction at 3 µM: inhibitor 3 μM
[6] = tested on: primary human total T-cells; test: Primary human total T-cell activation: IL-2 secretion, Biological Example 13; format: cell-based; conditions: 48 hours, fold change over baseline; for fold induction at 0.3 µM: inhibitor 0.3 μM; for fold induction at 0.3 µM / fold induction at 3 µM: Table 13-1; for fold induction at 1 µM: inhibitor 1 μM; for fold induction at 3 µM: inhibitor 3 μM
[7] = target: T1, Cbl-b; test: Cbl-b displacement assay (Cbl-b inhibition assay), Biological Example 12; format: binding; conditions: 0.5 nM Cbl-b final concentration (High); Table 12-1; read-out: Cbl-b IC50 (High)
Method: as §1, §2, §3, §4

[8] = tested on: primary human total T-cells; test: Primary human total T-cell activation: CD25 surface staining, Biological Example 9; format: cell-based; conditions: 48 hours, fold change over baseline; for fold induction at 0.3 µM: inhibitor 0.3 μM; for fold induction at 0.3 µM / fold induction at 3 µM: Table 9-1; for fold induction at 1 µM: inhibitor 1 μM; for fold induction at 3 µM: inhibitor 3 μM
[9] = tested on: primary human total T-cells; test: Primary human total T-cell activation: CD25 surface staining, Biological Example 2; format: cell-based; conditions: 48 hours, fold change over baseline; for fold induction at 0.3 µM: inhibitor 0.3 μM; for fold induction at 1 µM: inhibitor 1 μM; for fold induction at 3 µM: inhibitor 3 μM
[10] = anti-CD3/anti-CD28 co-stimulation
[11] = anti-CD3/anti-CD28 co-stimulation, read-out: IL-2 secretion CD3/CD28 1 μM
[12] = anti-CD3 alone, read-out: IL-2 secretion CD3 1 μM
[13] = anti-CD3/anti-CD28 co-stimulation, Table 13-1, read-out: CD25 staining CD3/CD28 1 μM
[14] = anti-CD3 alone, Table 13-1, read-out: CD25 staining CD3 1 μM
[15] = 0.5 nM Cbl-b final concentration (High), read-out: Cbl-b activity IC50 (High)
[16] = Cbl-b concentration (High or Low) not given, read-out: IC50 values in the Cbl-b inhibition assay of Biological Example 1
[17] = anti-CD3/anti-CD28 co-stimulation, Table 9-1, read-out: IL-2 secretion CD3/CD28 1 μM
[18] = anti-CD3 alone, Table 9-1, read-out: IL-2 secretion CD3 1 μM
[19] = anti-CD3/anti-CD28 co-stimulation, Table 13-1, read-out: IL-2 secretion CD3/CD28 1 μM
[20] = anti-CD3 alone, Table 13-1, read-out: IL-2 secretion CD3 1 μM
[21] = anti-CD3/anti-CD28 co-stimulation, Table 9-1, read-out: CD25 staining CD3/CD28 1 μM
[22] = anti-CD3 alone, Table 9-1, read-out: CD25 staining CD3 1 μM
[23] = anti-CD3/anti-CD28 co-stimulation, read-out: CD25 staining CD3/CD28 1 μM
[24] = anti-CD3 alone, read-out: CD25 staining CD3 1 μM

T1 sequence (Q13191 36-427): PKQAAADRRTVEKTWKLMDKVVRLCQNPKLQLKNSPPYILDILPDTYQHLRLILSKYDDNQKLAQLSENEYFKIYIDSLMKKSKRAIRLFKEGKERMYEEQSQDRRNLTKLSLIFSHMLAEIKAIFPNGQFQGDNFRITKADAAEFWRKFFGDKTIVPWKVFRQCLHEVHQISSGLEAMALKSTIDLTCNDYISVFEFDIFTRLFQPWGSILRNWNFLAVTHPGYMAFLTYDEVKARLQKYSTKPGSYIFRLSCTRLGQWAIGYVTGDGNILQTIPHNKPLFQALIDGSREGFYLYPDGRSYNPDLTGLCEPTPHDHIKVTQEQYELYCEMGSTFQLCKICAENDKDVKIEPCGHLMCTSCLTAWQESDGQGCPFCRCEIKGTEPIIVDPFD

SMILES | IC50 [1] | fold induction at 0.3 µM [2, 10] | fold induction at 1 µM [2, 11] | fold induction at 1 µM [2, 12] | fold induction at 3 µM ([2]; anti-CD3 alone) | fold induction at 0.3 µM [3, 10] | fold induction at 1 µM [3, 13] | fold induction at 1 µM [3, 14] | fold induction at 3 µM ([3]; anti-CD3 alone) | IC50 [4, 15] | IC50 [4, 16] | fold induction at 0.3 µM [5, 10] | fold induction at 1 µM [5, 17] | fold induction at 1 µM [5, 18] | fold induction at 3 µM ([5]; anti-CD3 alone) | fold induction at 0.3 µM [6, 10] | fold induction at 1 µM [6, 19] | fold induction at 1 µM [6, 20] | fold induction at 3 µM ([6]; anti-CD3 alone) | IC50 [7] | also measured
C[C@@H]1CN(Cc2cc(C(=O)Nc3cccc(C4(Cc5nncn5C)COC4)c3)nc(C3CC3)c2)CCC1(F)F [Compound 32, 6-cyclopropyl-4-{[(3R)-4,4-difluoro-3-methylpiperidin-1-yl]methyl}-N-(3-{3-[(4-methyl-1,2,4-triazol-3-yl)methyl]oxetan-3-yl}phenyl)pyridine-2-carboxamide] | < 1 nM | > 15 | > 15 | 0.34 to 0.66 | 0.34 to 0.66 | > 1.39 | > 1.39 | > 1.14 | > 1.14 | < 1 nM | < 1 nM | > 15 | > 15 | > 0.66 | > 0.66 | > 15 | > 15 | > 0.66 | > 0.66 | < 1 nM | fold induction at 0.3 µM [8, 10]: > 1.39; fold induction at 1 µM [8, 21]: > 1.39; fold induction at 1 µM [8, 22]: > 1.14; fold induction at 3 µM ([8]; anti-CD3 alone): > 1.14; fold induction at 0.3 µM [9, 10]: < 1.24; fold induction at 1 µM [9, 23]: < 1.24; fold induction at 1 µM [9, 24]: 1.05 to 1.14; fold induction at 3 µM ([9]; anti-CD3 alone): 1.05 to 1.14
C[C@@H]1C[C@H](C)CN(Cc2cc3c(c(C(F)(F)F)c2)CN(c2cccc(C4(Cc5nncn5C)COC4)c2)C3=O)C1 [Compound 2, 6-{[(3R,5S)-3,5-dimethylpiperidin-1-yl]methyl}-2-(3-{3-[(4-methyl-1,2,4-triazol-3-yl)methyl]oxetan-3-yl}phenyl)-4-(trifluoromethyl)-3H-isoindol-1-one] | < 1 nM | > 15 | > 15 | 0.34 to 0.66 | > 0.66 | < 1.24 | < 1.24 | 1.05 to 1.14 | 1.05 to 1.14 | < 1 nM | < 1 nM | 10 to 15 | 10 to 15 | 0.34 to 0.66 | > 0.66 | 11 to 15 | 11 to 15 | 0.34 to 0.66 | > 0.66 | < 1 nM | fold induction at 0.3 µM [8, 10]: < 1.24; fold induction at 1 µM [8, 21]: < 1.24; fold induction at 1 µM [8, 22]: 1.05 to 1.14; fold induction at 3 µM ([8]; anti-CD3 alone): 1.05 to 1.14; fold induction at 0.3 µM [9, 10]: < 1.24; fold induction at 1 µM [9, 23]: < 1.24; fold induction at 1 µM [9, 24]: 1.05 to 1.14; fold induction at 3 µM ([9]; anti-CD3 alone): 1.05 to 1.14
C[C@H]1CCCN(Cc2cc3c(c(C(F)(F)F)c2)CN(c2cccc(C4(Cc5nncn5C)COC4)c2)C3=O)C1 [Compound 1, (S)-2-(3-(3-((4-methyl-4H-1,2,4-triazol-3-yl)methyl)oxetan-3-yl)phenyl)-6-((3-methylpiperidin-1-yl)methyl)-4-(trifluoromethyl)isoindolin-1-one] | < 1 nM | > 15 | > 15 | > 0.66 | > 0.66 | > 1.39 | > 1.39 | > 1.14 | > 1.14 | < 1 nM | < 1 nM | > 15 | > 15 | > 0.66 | > 0.66 | > 15 | > 15 | > 0.66 | > 0.66 | < 1 nM | fold induction at 0.3 µM [8, 10]: > 1.39; fold induction at 1 µM [8, 21]: > 1.39; fold induction at 1 µM [8, 22]: > 1.14; fold induction at 3 µM ([8]; anti-CD3 alone): > 1.14; fold induction at 0.3 µM [9, 10]: < 1.24; fold induction at 1 µM [9, 23]: < 1.24; fold induction at 1 µM [9, 24]: < 1.04; fold induction at 3 µM ([9]; anti-CD3 alone): < 1.04
CCOc1cc(C2(Cc3nncn3C)COC2)cc(N2Cc3c(cc(CN4CCC(F)(F)[C@H](C)C4)cc3C(F)(F)F)C2=O)n1 [Compound 28, (R)-6-((4,4-difluoro-3-methylpiperidin-1-yl)methyl)-2-(6-ethoxy-4-(3-((4-methyl-4H-1,2,4-triazol-3-yl)methyl)oxetan-3-yl)pyridin-2-yl)-4-(trifluoromethyl)isoindolin-1-one] | 1 to 5 nM | > 15 | > 15 | 0.34 to 0.66 | 0.34 to 0.66 | 1.25 to 1.39 | < 1.24 | 1.05 to 1.14 | < 1.04 | 1 to 5 nM | 1 to 5 nM | 10 to 15 | 10 to 15 | 0.34 to 0.66 | 0.34 to 0.66 | 11 to 15 | 11 to 15 | 0.34 to 0.66 | 0.34 to 0.66 | 1 to 5 nM | fold induction at 0.3 µM [8, 10]: 1.25 to 1.39; fold induction at 1 µM [8, 21]: < 1.24; fold induction at 1 µM [8, 22]: 1.05 to 1.14; fold induction at 3 µM ([8]; anti-CD3 alone): < 1.04; fold induction at 0.3 µM [9, 10]: 1.25 to 1.39; fold induction at 1 µM [9, 23]: < 1.24; fold induction at 1 µM [9, 24]: 1.05 to 1.14; fold induction at 3 µM ([9]; anti-CD3 alone): < 1.04
